Test results from paper PMC11188305, “Reproductive and fetal toxicity studies of histamine H3 receptor antagonist DL76 used in mice to prevent maximal electroshock-induced seizure” (Frontiers in Pharmacology, 2024).

Test system: C57/B6 mouse embryos
Experiment: Reproductive studies: maternal, fetal and gross/visceral malformation observations after treatment on GD-8 or GD-13
Assay type: in vivo
Settings: for Number of female embryos / Number of male embryos: number (percentage); for Exomphalos / Eye open / Kinky tail / Left/right kidney hypo/descended / Mandible hypoplasia / Maxilla hypoplasia / Microtia/low set microtia / Undescended testis: number of embryos (percentage); for Live fetus/litter / Resorption/litter: parentheses contain percentages; for Placental weight, IUGR −2SD: fraction (percentage); for Fetal weight, IUGR −1SD / Fetal weight, IUGR −2SD: fraction of fetuses (percentage)
Method: Reproductive studies were conducted in adult female mice, averaging 30 gm in weight and 6 weeks in age ([Padmanabhan et al., 2006]; [Bastaki et al., 2018]). Following successful mating, indicated by vaginal plug observation, the plug-positive day was considered gestation day 0 (GD-0). DL76 was administered at various doses (7.5 mg/kg, 15 mg/kg, 30 mg/kg, and 60 mg/kg) through single i.p. injections and three 15 mg/kg injections in 1 day to mouse groups on GD-8 and GD-13 (Tables 1, 2). The control group was injected with normal saline. Appropriate formation of different organs occurs in specific periods of the development of the mouse. These two periods were selected because GD-8 is known to be a critical period for the induction of neural tube defects, craniofacial malformations, and the development of other organs, whereas on GD-13, the retina and other parts are being formed, and most other organs have been formed. The number of implantations, fetal deaths, and resorptions was recorded. Fetal and placental weights were documented separately. After blotting dry, the fetuses were weighed and fixed in 95% ethanol. The reproductive toxicological effects of DL76 were assessed by observing gross and visceral malformations, following [Sterz and Lehmann (1985)], [Abdulrazzaq et al. (1997)], [Padmanabhan et al. (2003)], and [Padmanabhan et al. (2006)].
Deformities of the embryos were identified according to a modified method of [Sterz and Lehmann (1985)], [Abdulrazzaq et al. (1997)], and [Bass et al. (2020)]. Accordingly, the embryos were removed from the 95% ethanol, and the lower part of the abdomen was cut using a razor blade. All organs were checked for abnormalities with a stereo dissecting microscope, and finally, the organs were removed by using forceps.
Statistical analyses employed SPSS 26.0 (IBM Middle East, Dubai, UAE). Data were presented as means ± SEM. […] Fetal abnormality data were presented as counts and percentages. Fisher’s exact test compared the percentages of abnormalities between the control group (saline) and the different dose groups. All tests were two-tailed, and significance was set at p < 0.05.

For CC(C)(C)c1ccc(OCCCN2CCCCC2)cc1 [DL76, 1-(3-(4-tert-butyl-phenoxy)propyl) piperidine], the “Number of female embryos” value (30 mg/kg i.p. on GD-13) was 24 (55.8), the “Number of male embryos” value (30 mg/kg i.p. on GD-13) was 19 (44.2) and the Exomphalos (30 mg/kg i.p. on GD-13) was 1 (2.3). The Eye open (30 mg/kg i.p. on GD-13) was 0, the Kinky tail (30 mg/kg i.p. on GD-13) was 0 and the Left/right kidney hypo/descended (30 mg/kg i.p. on GD-13) was 1 (2.3). The Mandible hypoplasia (30 mg/kg i.p. on GD-13) was 3 (7.0), the Maxilla hypoplasia (30 mg/kg i.p. on GD-13) was 2 (4.7) and the Microtia/low set microtia (30 mg/kg i.p. on GD-13) was 1 (2.3). For the same compound, the Undescended testis (30 mg/kg i.p. on GD-13) was 0, the Live fetus/litter (30 mg/kg i.p. on GD-13) was 6.143 (87.76) and the Resorption/litter (30 mg/kg i.p. on GD-13) was “.857 (12.24)”. The “Fetal weight/Litter (g) (Mean ± SD)” value (60 mg/kg i.p. on GD-8) was 1.048 ± .0156 g, the Fetuses/litter (60 mg/kg i.p. on GD-8) was 7.286 ± 1.380 and the “Placental weight/Litter (g) (mean ± SD)” value (60 mg/kg i.p. on GD-8) was 0.101 ± 0.010 g. The “Placental weight, IUGR −2SD” value (60 mg/kg i.p. on GD-8) was 0, the “Fetal weight, IUGR −1SD” value (60 mg/kg i.p. on GD-8) was 0 and the “Number of female embryos” value (60 mg/kg i.p. on GD-8) was 21 (45.7). The “Number of male embryos” value (60 mg/kg i.p. on GD-8) was 25 (54.3), the Exomphalos (60 mg/kg i.p. on GD-8) was 0 and the Eye open (60 mg/kg i.p. on GD-8) was 1 (2.2). The Kinky tail (60 mg/kg i.p. on GD-8) was 0, the Left/right kidney hypo/descended (60 mg/kg i.p. on GD-8) was 2 (4.3) and the Mandible hypoplasia (60 mg/kg i.p. on GD-8) was 4 (8.7). For the same compound, the Maxilla hypoplasia (60 mg/kg i.p. on GD-8) was 2 (4.3), the Microtia/low set microtia (60 mg/kg i.p. on GD-8) was 2 (4.3) and the Undescended testis (60 mg/kg i.p. on GD-8) was 0. The Live fetus/litter (60 mg/kg i.p. on GD-8) was 6.571 (90.20), the Resorption/litter (60 mg/kg i.p. on GD-8) was 0.714 (9.80) and the “Fetal weight Litter (g) (Mean ± SD)” value (60 mg/kg i.p. on GD-13) was 1.051 ± 0.122 g. The Fetuses/litter (60 mg/kg i.p. on GD-13) was 7.000 ± 1.414, the “Placental weight/Litter (g) (mean ± SD)” value (60 mg/kg i.p. on GD-13) was 0.097 ± 0.010 g and the “Fetal weight, IUGR −1SD” value (60 mg/kg i.p. on GD-13) was 0. For the same compound, the “Fetal weight, IUGR −2SD” value (60 mg/kg i.p. on GD-13) was 0, the “Number of female embryos” value (60 mg/kg i.p. on GD-13) was 17 (53.1) and the “Number of male embryos” value (60 mg/kg i.p. on GD-13) was 15 (46.9). The Exomphalos (60 mg/kg i.p. on GD-13) was 0, the Eye open (60 mg/kg i.p. on GD-13) was 2 (6.3) and the Kinky tail (60 mg/kg i.p. on GD-13) was 0. For the same compound, the Left/right kidney hypo/descended (60 mg/kg i.p. on GD-13) was 2 (6.3), the Mandible hypoplasia (60 mg/kg i.p. on GD-13) was 2 (6.3) and the Maxilla hypoplasia (60 mg/kg i.p. on GD-13) was 2 (6.3). For the same compound, the Microtia/low set microtia (60 mg/kg i.p. on GD-13) was 2 (6.3), the Undescended testis (60 mg/kg i.p. on GD-13) was 2 (6.3) and the Live fetus/litter (60 mg/kg i.p. on GD-13) was 5.333 (76.19). The Resorption/litter (60 mg/kg i.p. on GD-13) was 1.667 (23.81), the “Fetal weight/Litter (g) (Mean ± SD)” value (3 × 15-dose i.p. on GD-8) was 1.037 ± 0.101 g and the Fetuses/litter (3 × 15-dose i.p. on GD-8) was 8.143 ± 0.690. The “Placental weight/Litter (g) (mean ± SD)” value (3 × 15-dose i.p. on GD-8) was 0.092 ± 0.007 g, the “Placental weight, IUGR −2SD” value (3 × 15-dose i.p. on GD-8) was 0 and the “Fetal weight, IUGR −2SD” value (3 × 15-dose i.p. on GD-8) was 0. The “Number of female embryos” value (3 × 15-dose i.p. on GD-8) was 24 (51.1), the “Number of male embryos” value (3 × 15-dose i.p. on GD-8) was 23 (48.9) and the Exomphalos (3 × 15-dose i.p. on GD-8) was 0. For the same compound, the Eye open (3 × 15-dose i.p. on GD-8) was 4 (8.5), the Kinky tail (3 × 15-dose i.p. on GD-8) was 0 and the Left/right kidney hypo/descended (3 × 15-dose i.p. on GD-8) was 2 (4.3). The Mandible hypoplasia (3 × 15-dose i.p. on GD-8) was 3 (6.4), the Maxilla hypoplasia (3 × 15-dose i.p. on GD-8) was 2 (4.3) and the Microtia/low set microtia (3 × 15-dose i.p. on GD-8) was 2 (4.3). The Undescended testis (3 × 15-dose i.p. on GD-8) was 1 (2.1), the Live fetus/litter (3 × 15-dose i.p. on GD-8) was 6.714 (82.46) and the Resorption/litter (3 × 15-dose i.p. on GD-8) was 1.429 (17.54). For the same compound, the “Fetal weight Litter (g) (Mean ± SD)” value (3 × 15-dose i.p. on GD-13) was 1.051 ± 0.031 g, the Fetuses/litter (3 × 15-dose i.p. on GD-13) was 8.286 ± 1.704 and the “Placental weight/Litter (g) (mean ± SD)” value (3 × 15-dose i.p. on GD-13) was 0.110 ± 0.012 g. The “Placental weight, IUGR −2SD” value (3 × 15-dose i.p. on GD-13) was 0, the “Fetal weight, IUGR −1SD” value (3 × 15-dose i.p. on GD-13) was 0 and the “Fetal weight, IUGR −2SD” value (3 × 15-dose i.p. on GD-13) was 0. For the same compound, the “Number of female embryos” value (3 × 15-dose i.p. on GD-13) was 24 (50.0), the “Number of male embryos” value (3 × 15-dose i.p. on GD-13) was 24 (50.0) and the Exomphalos (3 × 15-dose i.p. on GD-13) was 1 (2.1). The Eye open (3 × 15-dose i.p. on GD-13) was 6 (12.5), the Kinky tail (3 × 15-dose i.p. on GD-13) was 1 (2.1) and the Left/right kidney hypo/descended (3 × 15-dose i.p. on GD-13) was 2 (4.2). For the same compound, the Mandible hypoplasia (3 × 15-dose i.p. on GD-13) was 3 (6.3), the Maxilla hypoplasia (3 × 15-dose i.p. on GD-13) was 3 (6.3) and the Microtia/low set microtia (3 × 15-dose i.p. on GD-13) was 3 (6.3). The Undescended testis (3 × 15-dose i.p. on GD-13) was 0, the Live fetus/litter (3 × 15-dose i.p. on GD-13) was 6.857 (82.76) and the Resorption/litter (3 × 15-dose i.p. on GD-13) was 1.429 (17.24). The “mean fetal weight in each litter, treatment groups vs controls” value (GD-8 and GD-13, all doses) was “not significantly different”, the “mean placental weights, treated groups vs controls” value (GD-8 and GD-13, all doses) was “not significantly different” and the “number of fetuses in each litter, between all study groups” value (GD-8 and GD-13, all doses) was “not significantly different”. For the same compound, the “number of live fetuses, between all study groups” value (GD-8 and GD-13, all doses) was “not significantly different”, the “resorption rate, between all the groups” value (GD-8 and GD-13, all doses) was “not significantly different” and the maternal toxicity (all groups, GD-8 and GD-13 treated animals) was “no sign of maternal toxicity”. For the same compound, the “incidence of exencephaly and craniofacial malformations, exomphalos, microtia, open eye, palate, hydronephrosis, descended kidney, undescended testis, kinky tail” value (between any of the groups studied) was “no significant difference”, the “average number of implantations and resorptions, control vs DL76-treated groups” value (early stages of gestation and organogenesis period) was “No significant alterations” and the “maternal body weight vs control mice group” value (single 7.5, 15, 30 or 60 mg/kg i.p. or multiple doses 3 × 15 mg/kg i.p. on GD 8 or 13) was “failed to affect”. The “incidence of gross morphological anomalies in treated fetuses vs control group” value (single- and multiple-dose groups given i.p.) was “not significantly different”.
